Measurements as given in the CheMixHub viscosity set.
“And” between values parts separate entries of the source, which are not always exact repeats. Equal values may be shown once. ± gives the uncertainty stated by the source.

Assay: xn = mol fraction of the nth substance listed

O=C(O)/C=C\C(=O)O + O
viscosity [mPa·s], 101.32 kPa
Settings | x1 = 0.0171 | x1 = 0.03648 | x1 = 0.06231 | x1 = 0.0943 | x1 = 0.145
298.15 K | 1.092 ± 0.026 | 1.349 ± 0.03 | 1.775 ± 0.035 | 2.459 ± 0.043 | –
313.15 K | 0.792 ± 0.019 | 0.968 ± 0.021 | 1.255 ± 0.025 | 1.702 ± 0.03 | 2.54 ± 0.039

OCC(F)(F)C(F)F + O
viscosity [mPa·s], 100 kPa
Settings | x1 = 0.1237 | x1 = 0.2532 | x1 = 0.3747 | x1 = 0.5024 | x1 = 0.6133 | x1 = 0.7598 | x1 = 0.8707
298.15 K | 2.07 ± 0.063 | 2.716 ± 0.078 | 3.002 ± 0.081 | 3.314 ± 0.084 | 3.523 ± 0.085 | 3.91 ± 0.089 | 4.341 ± 0.095
323.15 K | 1.032 ± 0.032 | 1.34 ± 0.039 | 1.478 ± 0.04 | 1.59 ± 0.041 | 1.678 ± 0.041 | 1.807 ± 0.041 | 1.961 ± 0.043

[Na+].[OH-] + O
Settings | viscosity
293.15 K, 101.33 kPa, x2 = 0.67 | 96.16 ± 4.2 mPa·s
293.15 K, 101.33 kPa, x2 = 0.8 | 22.24 ± 0.93 mPa·s
293.15 K, 101.33 kPa, x2 = 0.83 | 18.37 ± 0.74 mPa·s
293.15 K, 101.33 kPa, x2 = 0.85 | 9.529 ± 0.39 mPa·s
293.15 K, 101.33 kPa, x2 = 0.86 | 8.225 ± 0.33 mPa·s
293.15 K, 101.33 kPa, x2 = 0.89 | 6.356 ± 0.25 mPa·s
293.15 K, 101.33 kPa, x2 = 0.9 | 4.63 ± 0.19 mPa·s
323.15 K, 101 kPa, x1 = 0.009 | 0.609 ± 0.018 mPa·s
323.15 K, 101 kPa, x1 = 0.026 | 0.745 ± 0.023 mPa·s
323.15 K, 101 kPa, x1 = 0.05 | 1.02 ± 0.03 mPa·s
323.15 K, 101 kPa, x1 = 0.1 | 1.88 ± 0.06 mPa·s and 3.28 ± 0.1 mPa·s
323.15 K, 101 kPa, x1 = 0.18 | 5.04 ± 0.15 mPa·s
323.15 K, 101 kPa, x1 = 0.22 | 7.88 ± 0.23 mPa·s
323.15 K, 101 kPa, x1 = 0.3 | 10.9 ± 0.32 mPa·s

[Li+].[O-][Cl+3]([O-])([O-])[O-] + O=S1(=O)CCCC1
101 kPa, x1 = 0.1
Settings | viscosity
303.15 K | 28.58 ± 2.9 mPa·s and 28.57 ± 2.9 mPa·s
308.15 K | 24.56 ± 2.5 mPa·s
313.15 K | 20.83 ± 2.1 mPa·s
318.15 K | 18.28 ± 1.8 mPa·s
323.15 K | 16.02 ± 1.6 mPa·s
